Legend:
[1] = Estimation of shelf life of sunflower oil (Rancimat temperature extrapolation); conditions: 200 ppm
Experimental: (§2) This is an aid for estimating the shelf life of oils and fats. The extrapolation makes use of the relationship between the measured induction time and the temperature given by van't Hoff's law. Several measurements are made at different temperatures and then extrapolated to the storage temperature. The values so obtained allow estimation of the storage stability of the oil or fat containing PRESOL.
(§3) The shelf life is calculated using Rancimat shelf life calculator.

[2] = Estimation of shelf life of palm oil (Rancimat temperature extrapolation); conditions: 200 ppm
Experimental: as §2, §3

[3] = Effect of particle size on antioxidant activity (Rancimat induction time) in sunflower oil; conditions: 200 ppm in sunflower oil; Rancimat 100° C.
Experimental: (§4) Effect of particle size analysis on antioxidant activity is analysed with the help of Rancimat (Metrohm 743) which gives oxidative stability index based on the induction time (h). Rancimat analysis is carried out at two different temperature in order to set relationship between induction time and temperature of the studies.
(§5) In this, we have analyzed the particle size of samples with the help of Particle Size Analyzer (Microtrac, S3500) and its antioxidant activity with the help of Rancimat (Metrohm 743).

[4] = Totox value of palm oil on storage; conditions: ambient temperature
Experimental: (§6) The shelf life of oil is studied by carrying out chemical analysis, which include studying peroxide value (represents extent of primary oxidation), Para-anisidine value (represents extent of secondary oxidation) and totox value (reflects total oxidation of oil). These parameters are determined for 1 kg of untreated oil and treated oil at every 15 days interval for samples stored at ambient temperature and at every 7 days interval for samples stored at 50° C. The treated oil being, the oil upon addition of 200 ppm of TBHQ (sample-A), 200 ppm of BHA (sample-B), 200 ppm and 500 ppm of pulverized green tea extract with 90% polyphenol (sample-C), 200 ppm and 500 ppm of rosemary extract (sample-D), 200 ppm and 500 ppm of green tea extract after cryogenic grinding (sample-E), 200 ppm and 500 ppm of crude green tea extract (sample-F) and PRESOL at 200 ppm and 500 ppm. The untreated oil is the control sample without any antioxidant.
(§7) The threshold limit for per oxide value under which oil can be used for safe consumption is 10 meq of O2/Kg oil. Similarly, the threshold limit of para-anisidine value and Totox value is 10 and 30, respectively.

[5] = Oil stability index (Rancimat) of palm oil; conditions: 200 ppm
Experimental: (§8) As used herein, ‘Oil Stability Index (OSI)’ is an American Oil Chemists Society (AOCS) approved method that determines the relative resistance of fat and oil samples to oxidation, which is defined by the following equation—
(§9) The oil stability index is determined using the Metrohm's Rancimat (Metrohm 743 Rancimat).
4.0 g of palm oil is weighed into the reaction vessel. The reaction vessel filled with oil is placed in a heating block. The temperature of the block is maintained at 100° C., 120° C. and 140° C., respectively. The oil is heated at the said temperatures, followed by passing air at a flow rate of 20 L/h. Flowing of air through the oil produces peroxides during primary oxidation and organic acids having low molecular weight, aldehydes and ketones with typical rancid odor during the secondary oxidation phase. These compounds are conveyed by the air flow into measurement vessel containing distilled water where conductivity is being checked continuously by sensor.

[6] = Frying cycle analysis of palm oil (total polar compounds)
Experimental: (§1) Palm oil and sunflower oil with antioxidants added to it are obtained from a local refinery. Frying studies are carried out with control oil and by adding TBHQ (Sample A), BHA (Sample B), GT Pulverized (Sample C), ROS (Sample D), GT Cryo grinded (Sample E), GT Crude Extract (Sample F) and PRESOL, respectively to the oils. Experiments are carried out a concentration of 200 ppm and 500 ppm. Fresh potatoes of less reduced sugar content variety are used throughout the experiment which is purchased form a local supermarket. Oil samples are withdrawn from the fryer at the end of every day and stored at −4° C. until it is tested for quality parameters viz, total polar compounds. Polar compounds present in oil and fats are measured by column chromatography using standard method, ES ISO 8420:2012.

[7] = Oil stability index (Rancimat) of sunflower oil; conditions: 200 ppm
Experimental: as §8, §9
4.0 g of sunflower oil is weighed into the reaction vessel. The reaction vessel filled with oil is placed in a heating block. The temperature of the block is maintained at 80° C., 100° C. and 120° C., respectively. The oil is heated at the said temperatures, followed by passing air at a flow rate of 20 L/h. Flowing of air through the oil produces peroxides during primary oxidation and organic acids having low molecular weight, aldehydes and ketones with typical rancid odor during the secondary oxidation phase. These compounds are conveyed by the air flow into measurement vessel containing distilled water where conductivity is being checked continuously by sensor.

Shelf life of canola oil = conditions: 200 ppm
Experimental: D. Determination of Shelf Life of Canola Oil in the Presence of PRESOL • Shelf life of canola oil is analyzed upon adding 200 ppm of TBHQ (sample-A), BHA (sample-B), green tea extract with 90% polyphenol (sample-C), rosemary extract (sample-D), green tea extract after cryogenic grinding (sample-E), and PRESOL, respectively to canola oil.

[8] = Para-anisidine value of palm oil on storage
Experimental: as §6, §7

[9] = Frying cycle analysis of sunflower oil (total polar compounds)
Experimental: as §1

[10] = Peroxide value of palm oil on storage
Experimental: as §6, §7

[11] = Synergism of TBHQ and PRESOL combination (Rancimat) in palm oil
Experimental: Synergism of TBHQ and PRESOL is analyzed in palm oil. If the frying industry is considered, synthetic antioxidant TBHQ is being added to the oils. […] In order to overcome this limitation, TBHQ is fortified with PRESOL and added to vegetable oils in order to increase the frying cycles which ultimately increases the shelf life of end products. […] The below table 25 illustrates all the combination of fortification of TBHQ and PRESOL used in palm oil to illustrate maximum activity of fortified combination. Synergism is calculated based on the below equation: [formula]

[12] = Effect of particle size on antioxidant activity (Rancimat induction time) in palm oil; conditions: 200 ppm in palm oil; Rancimat 120° C.
Experimental: as §4, §5

[13] = ambient temperature, day 0, 200 ppm
[14] = ambient temperature, day 15, 200 ppm
[15] = ambient temperature, day 30, 200 ppm
[16] = ambient temperature, day 45, 200 ppm
[17] = ambient temperature, day 60, 200 ppm
[18] = ambient temperature, day 75, 200 ppm
[19] = ambient temperature, day 90, 200 ppm
[20] = ambient temperature, day 105, 200 ppm
[21] = ambient temperature, day 120, 200 ppm
[22] = ambient temperature, day 135, 200 ppm
[23] = ambient temperature, day 150, 200 ppm
[24] = ambient temperature, day 165, 200 ppm
[25] = ambient temperature, day 180, 200 ppm

For `CC(C)(C)c1cc(O)ccc1O` [Sample A, tertiary butyl hydroquinone], the “Shelf Life (days) at 30° C.” value [1] was 171.0 days, the “Shelf Life (days) at 30° C.” value [2] was 617.0 days and the “Induction Period (h) of SFO 100° C.” value [3] was 26.82 h. The Totox value ([4]; day 0, 200 ppm) was 3.497, the Totox value ([4]; day 15, 200 ppm) was 4.585 and the Totox value ([4]; day 30, 200 ppm) was 5.879. It also gave a Totox value ([4]; day 45, 200 ppm) of 6.228, a Totox value ([4]; day 60, 200 ppm) of 6.157 and a Totox value ([4]; day 75, 200 ppm) of 6.441. The Totox value ([4]; day 90, 200 ppm) was 6.400, the Totox value ([4]; day 105, 200 ppm) was 6.976 and the Totox value ([4]; day 120, 200 ppm) was 7.122. For the same molecule, the Totox value ([4]; day 135, 200 ppm) was 7.339, the Totox value ([4]; day 150, 200 ppm) was 7.916 and the Totox value ([4]; day 165, 200 ppm) was 8.258. For the same molecule, the Totox value ([4]; day 180, 200 ppm) was 8.614, the “Induction Time” value ([5]; 100° C.) was 95.76 h and the “Oxidative Stability Index (OSI)” value ([5]; 100° C.) was 2.30. The “Induction Time” value ([5]; 120° C.) was 20.93 h, the “Oxidative Stability Index (OSI)” value ([5]; 120° C.) was 2.17 and the “Induction Time” value ([5]; 140° C.) was 5.26 h. For the same molecule, the “Oxidative Stability Index (OSI)” value ([5]; 140° C.) was 2.15, the “frying cycle after which threshold limit for total polar compounds is crossed” value ([6]; palm oil) was 40 cycle and the “Number of batches fried” value ([6]; palm oil (PO), potato chips, 200 ppm) was 40 batches. The “Induction Time” value ([7]; 80° C.) was 109.76 h, the “Oxidative Stability Index (OSI)” value ([7]; 80° C.) was 3.01 and the “Induction Time” value ([7]; 100° C.) was 26.82 h. The “Oxidative Stability Index (OSI)” value ([7]; 100° C.) was 2.88, the “Induction Time” value ([7]; 120° C.) was 6.13 h and the “Oxidative Stability Index (OSI)” value ([7]; 120° C.) was 2.61. For the same molecule, the “Shelf Life (No. Of Days)” value (Shelf life of canola oil) was 181 days, the Para-anisidine value ([8]; 50° C., day 0, 200 ppm) was 2.69 and the Para-anisidine value ([8]; 50° C., day 7, 200 ppm) was 3.062. It also gave a Para-anisidine value ([8]; 50° C., day 15, 200 ppm) of 3.296, a Para-anisidine value ([8]; 50° C., day 22, 200 ppm) of 3.395 and a Para-anisidine value ([8]; 50° C., day 30, 200 ppm) of 3.74. The Para-anisidine value ([8]; 50° C., day 37, 200 ppm) was 4.052, the Para-anisidine value ([8]; 50° C., day 45, 200 ppm) was 4.209 and the Para-anisidine value ([8]; 50° C., day 52, 200 ppm) was 4.685. For the same molecule, the Para-anisidine value ([8]; 50° C., day 60, 200 ppm) was 5.091, the Para-anisidine value ([8]; 50° C., day 67, 200 ppm) was 5.208 and the Para-anisidine value ([8]; 50° C., day 75, 200 ppm) was 5.514. For the same molecule, the Para-anisidine value ([8]; 50° C., day 82, 200 ppm) was 5.601, the Para-anisidine value ([8]; 50° C., day 90, 200 ppm) was 5.827 and the Para-anisidine value [8, 13] was 2.566. For the same molecule, the Para-anisidine value [8, 14] was 3.062, the Para-anisidine value [8, 15] was 3.045 and the Para-anisidine value [8, 16] was 3.113. It also gave a Para-anisidine value [8, 17] of 2.615, a Para-anisidine value [8, 18] of 2.731 and a Para-anisidine value [8, 19] of 2.772. For the same molecule, the Para-anisidine value [8, 20] was 3.217, the Para-anisidine value [8, 21] was 3.303 and the Para-anisidine value [8, 22] was 3.438. The Para-anisidine value [8, 23] was 3.473, the Para-anisidine value [8, 24] was 3.639 and the Para-anisidine value [8, 25] was 3.808. The “Total Polar compounds of sunflower oil” value ([9]; 200 ppm, frying cycle 0) was 3.746, the “Total Polar compounds of sunflower oil” value ([9]; 200 ppm, frying cycle 8) was 6.375 and the “Total Polar compounds of sunflower oil” value ([9]; 200 ppm, frying cycle 16) was 13.632. For the same molecule, the “Total Polar compounds of sunflower oil” value ([9]; 200 ppm, frying cycle 24) was 18.505, the “Total Polar compounds of sunflower oil” value ([9]; 200 ppm, frying cycle 32) was 23.123 and the “Total Polar compounds of sunflower oil” value ([9]; 200 ppm, frying cycle 40) was 28.648. For the same molecule, the “frying cycle after which threshold limit for total polar compounds is crossed” value ([9]; sunflower oil) was 40 cycle, the “Number of batches fried” value ([9]; sunflower oil (SFO), potato chips, 200 ppm) was 40 batches and the Peroxide value ([10]; 50° C., day 0, 200 ppm) was 0.482. For the same molecule, the Peroxide value ([10]; 50° C., day 7, 200 ppm) was 1.309, the Peroxide value ([10]; 50° C., day 15, 200 ppm) was 1.836 and the Peroxide value ([10]; 50° C., day 22, 200 ppm) was 1.887. It also gave a Peroxide value ([10]; 50° C., day 30, 200 ppm) of 2.005, a Peroxide value ([10]; 50° C., day 37, 200 ppm) of 3.074 and a Peroxide value ([10]; 50° C., day 45, 200 ppm) of 3.686. It also gave a Peroxide value ([10]; 50° C., day 52, 200 ppm) of 4.102, a Peroxide value ([10]; 50° C., day 60, 200 ppm) of 4.491 and a Peroxide value ([10]; 50° C., day 67, 200 ppm) of 4.75. The Peroxide value ([10]; 50° C., day 75, 200 ppm) was 4.893, the Peroxide value ([10]; 50° C., day 82, 200 ppm) was 5.209 and the Peroxide value ([10]; 50° C., day 90, 200 ppm) was 5.395. The Peroxide value [10, 13] was 0.465, the Peroxide value [10, 14] was 0.762 and the Peroxide value [10, 15] was 1.417. It also gave a Peroxide value [10, 16] of 1.558, a Peroxide value [10, 17] of 1.771 and a Peroxide value [10, 18] of 1.855. For the same molecule, the Peroxide value [10, 19] was 1.814, the Peroxide value [10, 20] was 1.88 and the Peroxide value [10, 21] was 1.91. For the same molecule, the Peroxide value [10, 22] was 1.951, the Peroxide value [10, 23] was 2.222 and the Peroxide value [10, 24] was 2.31. The Peroxide value [10, 25] was 2.403, the “Increase in OSI (%)” value ([11]; 50 ppm alone) was 5.12% and the “Induction Time (H) at 120 C.” value ([11]; 50 ppm alone) was 9.57 H. The OSI ([11]; 50 ppm alone) was 1.054, the “increase in induction time as compared to control (X-C)” value (shortened to “increase in induction time”) ([11]; 50 ppm alone) was 0.49 and the “Increase in OSI (%)” value ([11]; 100 ppm alone) was 17.53%. For the same molecule, the “Induction Time (H) at 120 C.” value ([11]; 100 ppm alone) was 11.01 H, the OSI ([11]; 100 ppm alone) was 1.21 and the “increase in induction time” value ([11]; 100 ppm alone) was 1.93. For the same molecule, the “Increase in OSI (%)” value ([11]; 200 ppm alone) was 36.24%, the “Induction Time (H) at 120 C.” value ([11]; 200 ppm alone) was 14.24 H and the OSI ([11]; 200 ppm alone) was 1.57. The “increase in induction time” value ([11]; 200 ppm alone) was 5.16 and the “Induction Period (h) of PO at 120° C.” value [12] was 20.93 h.

From patent US20140248361A1, “HERBAL EXTRACT COMPOSITION AND A PROCESS THEREOF” (PRASAN SOLUTIONS (INDIA) PVT LTD, priority 2012, published 2014)
